In ChEMBL document CHEMBL4507300 (2021):

Tests used:
Details in all cases: Compound concentration 1000.0 nM
[1] = biological target: Cyclin-dependent kinase-like 5 (Homo sapiens) (UniProt O76039)
[2] = system: Tyrosine-protein kinase ABL1 (Homo sapiens), P00519 [M351T]
[3] = biological target: Serine/threonine-protein kinase NIM1 (Homo sapiens) (UniProt Q8IY84)
[4] = biological target: Receptor tyrosine-protein kinase erbB-3 (Homo sapiens) (UniProt P21860)
[5] = biological target: Mitogen-activated protein kinase kinase kinase kinase 2 (Homo sapiens) (UniProt Q12851)
Chain of Mitogen-activated protein kinase kinase kinase kinase 2 (Homo sapiens) (Q12851 whole entry): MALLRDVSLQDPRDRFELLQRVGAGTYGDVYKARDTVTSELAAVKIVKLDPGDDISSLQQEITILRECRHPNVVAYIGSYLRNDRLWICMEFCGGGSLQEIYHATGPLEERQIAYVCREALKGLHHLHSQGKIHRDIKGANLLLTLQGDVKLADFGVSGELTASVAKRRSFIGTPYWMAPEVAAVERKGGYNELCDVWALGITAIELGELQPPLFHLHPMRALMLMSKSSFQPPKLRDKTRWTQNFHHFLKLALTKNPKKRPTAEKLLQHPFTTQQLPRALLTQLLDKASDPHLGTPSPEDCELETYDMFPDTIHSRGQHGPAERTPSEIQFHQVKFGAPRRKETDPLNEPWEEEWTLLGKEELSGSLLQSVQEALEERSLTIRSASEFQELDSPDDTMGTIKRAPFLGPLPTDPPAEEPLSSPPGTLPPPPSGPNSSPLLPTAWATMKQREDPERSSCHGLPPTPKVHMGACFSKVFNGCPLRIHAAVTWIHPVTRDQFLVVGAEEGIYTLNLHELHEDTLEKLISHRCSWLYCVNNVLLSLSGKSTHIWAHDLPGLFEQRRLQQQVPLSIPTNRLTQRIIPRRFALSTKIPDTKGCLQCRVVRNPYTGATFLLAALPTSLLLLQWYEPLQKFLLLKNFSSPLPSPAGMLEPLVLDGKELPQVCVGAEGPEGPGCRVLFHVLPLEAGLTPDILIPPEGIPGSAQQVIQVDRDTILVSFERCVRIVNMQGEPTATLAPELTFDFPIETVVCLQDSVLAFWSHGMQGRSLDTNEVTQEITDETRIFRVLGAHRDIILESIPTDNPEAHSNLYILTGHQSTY

[6] = system: Serine/threonine-protein kinase B-raf (Homo sapiens), P15056 [V600E]
Chain of Serine/threonine-protein kinase B-raf (Homo sapiens), P15056 [V600E] (P15056 whole entry V600E): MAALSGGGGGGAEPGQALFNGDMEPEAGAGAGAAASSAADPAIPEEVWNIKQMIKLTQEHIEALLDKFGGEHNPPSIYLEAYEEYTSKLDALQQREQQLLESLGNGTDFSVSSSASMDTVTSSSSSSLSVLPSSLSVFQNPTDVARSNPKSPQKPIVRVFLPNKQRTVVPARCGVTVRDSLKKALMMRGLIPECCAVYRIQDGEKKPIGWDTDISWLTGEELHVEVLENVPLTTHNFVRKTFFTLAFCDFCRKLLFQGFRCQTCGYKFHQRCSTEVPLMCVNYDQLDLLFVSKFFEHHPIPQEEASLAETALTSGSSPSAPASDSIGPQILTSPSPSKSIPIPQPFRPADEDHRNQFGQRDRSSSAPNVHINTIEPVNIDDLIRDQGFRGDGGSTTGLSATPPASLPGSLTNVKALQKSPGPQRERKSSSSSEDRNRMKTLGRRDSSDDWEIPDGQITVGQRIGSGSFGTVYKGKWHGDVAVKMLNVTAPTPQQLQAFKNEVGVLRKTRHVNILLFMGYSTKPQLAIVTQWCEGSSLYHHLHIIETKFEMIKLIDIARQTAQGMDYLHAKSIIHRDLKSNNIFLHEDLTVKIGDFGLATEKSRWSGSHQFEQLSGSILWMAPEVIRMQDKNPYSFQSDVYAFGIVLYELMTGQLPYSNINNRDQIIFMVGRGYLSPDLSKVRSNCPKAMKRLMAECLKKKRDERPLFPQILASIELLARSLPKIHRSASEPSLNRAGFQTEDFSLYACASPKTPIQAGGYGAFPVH

[7] = biological target: Mitogen-activated protein kinase kinase kinase 15 (Homo sapiens) (UniProt Q6ZN16)
[8] = biological target: NT-3 growth factor receptor (Homo sapiens) (UniProt Q16288)
Chain of NT-3 growth factor receptor (Homo sapiens) (Q16288 32-839 limits assumed): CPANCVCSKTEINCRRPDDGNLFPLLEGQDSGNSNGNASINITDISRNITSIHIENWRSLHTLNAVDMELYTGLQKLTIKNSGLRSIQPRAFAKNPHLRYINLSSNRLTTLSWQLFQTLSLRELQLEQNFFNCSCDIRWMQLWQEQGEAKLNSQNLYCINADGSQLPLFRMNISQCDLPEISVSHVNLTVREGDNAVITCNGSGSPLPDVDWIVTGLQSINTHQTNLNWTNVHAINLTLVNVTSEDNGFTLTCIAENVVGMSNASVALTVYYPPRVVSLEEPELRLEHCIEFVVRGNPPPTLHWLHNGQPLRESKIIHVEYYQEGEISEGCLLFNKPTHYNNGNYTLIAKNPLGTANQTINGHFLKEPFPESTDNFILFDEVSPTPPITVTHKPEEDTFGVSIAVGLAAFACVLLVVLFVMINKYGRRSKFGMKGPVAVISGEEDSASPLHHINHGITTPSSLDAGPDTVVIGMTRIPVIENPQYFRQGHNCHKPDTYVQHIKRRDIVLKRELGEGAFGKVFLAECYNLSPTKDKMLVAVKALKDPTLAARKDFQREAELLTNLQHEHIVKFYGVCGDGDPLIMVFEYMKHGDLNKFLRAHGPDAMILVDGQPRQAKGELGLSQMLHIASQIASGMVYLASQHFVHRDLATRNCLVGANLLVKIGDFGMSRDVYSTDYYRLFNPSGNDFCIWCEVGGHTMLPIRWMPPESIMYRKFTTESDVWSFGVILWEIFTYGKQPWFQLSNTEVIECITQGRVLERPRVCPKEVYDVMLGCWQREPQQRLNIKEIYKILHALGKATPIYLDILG

[9] = system: Epidermal growth factor receptor (Homo sapiens), P00533 [UNDEFINED MUTATION]
[10] = biological target: Serine/threonine-protein kinase Nek10 (Homo sapiens) (UniProt Q6ZWH5)

Measured: residual activity

Chain of Cyclin-dependent kinase-like 5 (Homo sapiens) (O76039 whole entry): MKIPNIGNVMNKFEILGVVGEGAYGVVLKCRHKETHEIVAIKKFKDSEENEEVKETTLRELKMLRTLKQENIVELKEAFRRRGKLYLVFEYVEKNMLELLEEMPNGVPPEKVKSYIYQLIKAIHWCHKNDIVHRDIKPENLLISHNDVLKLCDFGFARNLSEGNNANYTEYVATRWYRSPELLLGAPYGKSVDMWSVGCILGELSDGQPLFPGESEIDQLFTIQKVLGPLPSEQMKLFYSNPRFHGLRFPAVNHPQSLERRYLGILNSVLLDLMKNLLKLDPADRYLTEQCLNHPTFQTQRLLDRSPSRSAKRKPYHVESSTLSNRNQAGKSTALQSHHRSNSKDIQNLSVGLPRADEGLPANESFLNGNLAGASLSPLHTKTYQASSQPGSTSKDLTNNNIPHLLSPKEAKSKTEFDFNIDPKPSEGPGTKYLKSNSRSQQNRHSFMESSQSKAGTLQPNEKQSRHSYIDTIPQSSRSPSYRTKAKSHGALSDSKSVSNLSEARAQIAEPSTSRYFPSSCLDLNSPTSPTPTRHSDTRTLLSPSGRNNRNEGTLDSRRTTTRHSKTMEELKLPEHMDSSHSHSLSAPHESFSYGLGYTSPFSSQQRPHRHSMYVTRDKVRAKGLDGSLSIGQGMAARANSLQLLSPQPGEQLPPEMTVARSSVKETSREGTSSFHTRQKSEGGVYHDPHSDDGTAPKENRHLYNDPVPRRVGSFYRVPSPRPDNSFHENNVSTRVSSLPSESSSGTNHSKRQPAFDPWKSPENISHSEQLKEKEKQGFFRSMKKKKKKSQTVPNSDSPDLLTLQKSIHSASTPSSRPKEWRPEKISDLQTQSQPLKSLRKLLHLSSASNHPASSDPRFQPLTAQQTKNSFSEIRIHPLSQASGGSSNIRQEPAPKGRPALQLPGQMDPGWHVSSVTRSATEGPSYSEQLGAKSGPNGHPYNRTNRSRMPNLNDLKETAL
Chain of Receptor tyrosine-protein kinase erbB-3 (Homo sapiens) (P21860 whole entry): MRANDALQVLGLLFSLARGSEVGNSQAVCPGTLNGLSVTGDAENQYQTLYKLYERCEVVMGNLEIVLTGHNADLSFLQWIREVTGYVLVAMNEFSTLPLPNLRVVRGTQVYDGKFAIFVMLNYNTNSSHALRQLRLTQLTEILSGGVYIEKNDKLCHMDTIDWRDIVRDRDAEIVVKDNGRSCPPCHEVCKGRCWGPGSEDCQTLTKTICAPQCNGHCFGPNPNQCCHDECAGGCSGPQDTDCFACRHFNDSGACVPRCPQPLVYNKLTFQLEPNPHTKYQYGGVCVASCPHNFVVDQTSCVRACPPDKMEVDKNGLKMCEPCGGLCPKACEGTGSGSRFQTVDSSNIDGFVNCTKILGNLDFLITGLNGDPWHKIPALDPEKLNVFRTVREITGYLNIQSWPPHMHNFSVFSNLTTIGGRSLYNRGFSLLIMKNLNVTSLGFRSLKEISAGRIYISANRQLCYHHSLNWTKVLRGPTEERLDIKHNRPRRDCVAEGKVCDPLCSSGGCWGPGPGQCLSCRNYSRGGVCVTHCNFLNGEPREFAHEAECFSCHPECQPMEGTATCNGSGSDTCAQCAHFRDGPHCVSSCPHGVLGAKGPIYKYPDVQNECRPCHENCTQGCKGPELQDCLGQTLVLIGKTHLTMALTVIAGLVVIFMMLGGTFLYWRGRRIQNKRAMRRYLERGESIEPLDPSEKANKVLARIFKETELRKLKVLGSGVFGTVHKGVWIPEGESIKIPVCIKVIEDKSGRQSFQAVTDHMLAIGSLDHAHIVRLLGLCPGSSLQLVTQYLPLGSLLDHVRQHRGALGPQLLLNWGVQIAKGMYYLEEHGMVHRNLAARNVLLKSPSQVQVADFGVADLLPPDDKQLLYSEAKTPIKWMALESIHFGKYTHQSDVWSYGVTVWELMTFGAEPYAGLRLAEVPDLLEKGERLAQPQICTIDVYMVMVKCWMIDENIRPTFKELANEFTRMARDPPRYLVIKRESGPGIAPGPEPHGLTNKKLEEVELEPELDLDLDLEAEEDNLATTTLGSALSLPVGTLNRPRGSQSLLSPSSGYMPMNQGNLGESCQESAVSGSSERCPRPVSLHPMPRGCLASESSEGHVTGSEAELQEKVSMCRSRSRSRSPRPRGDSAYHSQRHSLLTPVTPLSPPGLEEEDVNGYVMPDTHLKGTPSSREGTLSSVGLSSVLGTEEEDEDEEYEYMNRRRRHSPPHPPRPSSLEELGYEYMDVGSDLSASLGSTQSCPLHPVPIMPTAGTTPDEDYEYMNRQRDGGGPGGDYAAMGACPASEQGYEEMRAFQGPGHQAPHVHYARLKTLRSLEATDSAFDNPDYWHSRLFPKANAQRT

COc1cccc(CNC(=O)c2nc3scc(COCc4ccc(C(=O)O)cc4)c3c(=O)[nH]2)c1 [T-26c]
inactive: [1] 89.5% | [2] 84.4% | [3] 100% | [4] 89.4% | [5] 83% | [6] 79.8% | [7] 100% | [8] 76.3% | [9] 76% | [10] 61.7%
